Read-outs that look alike come from different tables or passages of the source.
Tests used:
[1] = immediate release vasoconstrictor; at best; cited from earlier work

Method for rat sciatic nerve: The duration of local anesthesia induced by the bupivacaine-loaded microspheres, prepared from PLGA 65:35, with and without the co-administration of an augmenting agent, is tested in a rat sciatic nerve model for localized local anesthesia. […] The latency test determines the time, in seconds, before a rat withdraws its hindpaw from a hotplate set to a safe but uncomfortable temperature (56° C.).
Maximum sciatic nerve sensory blockade is defined as having a latency of about 12 seconds or higher.
In this example, a large number of pharmaceutical agents were tested for activity in augmenting the duration of local anesthetic activity. Bupivacaine-containing microspheres at about 75% loading, by weight, were injected perineurally into rat sciatic nerve at a dose of 150mg/kg (weight microspheres/weight rat) to dose of approximately 50 mg/nerve. For the injections, needle placement adjacent to the target nerve was optimized by intermittent electrical e stimulation of the target nerve (via the injection needle) with low amplitude current to produce limb flexion. For the injections, the microspheres were suspended in a carrier vehicle suitable for injection. While any pharmaceutically acceptable carrier vehicle is acceptable, for these experiments the carrier vehicle was 1% sodium carboxymethylcellulose and 1% Tween 80 in water.
Compounds to be tested were co-injected with bupivacaine containing microspheres (i.e., mixed as additives into the carrier vehicle) in a range of concentrations. Results are expressed as percent increase in duration relative to non-augmented durations that were obtained in the same animal model.

For `COc1cc2c(c(OC)c1OC)-c1ccc(OC)c(=O)cc1[C@@H](NC(C)=O)CC2` [Colchicine], the “Duration Anesthesia As Percent of Control” value (rat sciatic nerve; 0.1 % additive conc., Placebo (no bupivacaine)) was 0% of Control, the “Duration Anesthesia As Percent of Control (toxicity noted)” value (rat sciatic nerve; 10 % additive conc. in carrier vehicle, LAB 150 mg/kg) was “toxic” and the “Duration Anesthesia As Percent of Control” value (rat sciatic nerve; 10 % additive conc., no LAB) was 0% of Control.

For `CNC[C@H](O)c1ccc(O)c(O)c1` [epinephrine], the “prolongation of local anesthetic activity” value [1] is given as “about 1 hour”.

— patent US6921541B2, “Formulations and methods for providing prolonged local anesthesia” (Euro-Celtique S.A., priority 1995, dated 2005)
